Data: US4994441A, “Dental anti-plaque and anti-caries agent” (priority 1987, dated 1991)

Columns and labels:
S. sanguis OMZ 9 = settings: for Inhibition (%) of bacterial adhesion to plastic tubes: 1 mg/ml, 4 h; for Inhibitory effect on adhesion to plastic tubes (in words): preliminary tests
A. viscosus OMZ 105 [1] = settings: for Inhibition (%) of bacterial adhesion to plastic tubes: 1 mg/ml, 4 h; for Inhibitory effect on adhesion to plastic tubes (in words): preliminary tests
S. mutans OMZ 176 = experiment: Inhibition of bacterial adhesion to plastic (polypropylene) tubes; settings: 1 mg/ml, 4 h
A. viscosus OMZ 105 [2] = test system: A. viscosus OMZ 105
A. naeslundii ATCC 12104 = settings: A. naeslundii ATCC 12104, no control of growth phase; desialylated human erythrocytes (A+); none = no inhibition up to 20 mg/ml

| Molecule | Inhibition (%) of bacterial adhesion to plastic tubes (S. sanguis OMZ 9) | Inhibition (%) of bacterial adhesion to plastic tubes (A. viscosus OMZ 105 [1]) | Inhibition (%) of bacterial adhesion to plastic tubes (S. mutans OMZ 176) | Inhibitory effect on adhesion to plastic tubes (in words) (S. sanguis OMZ 9) | Inhibitory effect on adhesion to plastic tubes (in words) (A. viscosus OMZ 105 [1]) | other results |
| --- | --- | --- | --- | --- | --- | --- |
| Polyglutamic acid | 6% | 22% | 20% | – | – | – |
| NCC(=O)O [glycine] | – | – | – | nonactivity | nonactivity | – |
| O=C[C@H](O)[C@@H](O)[C@H](O)[C@H](O)CO [glucose] | – | – | – | nonactivity | nonactivity | – |
| COC1OC(CO)C(O)C(O)C1O (stereo not drawn) [Methyl α annoside] | 11% | 10% | 3% | – | – | – |
| Polylysine | 12% | 46% | 30% | – | – | – |
| OC[C@H]1O[C@@H](O[C@H]2[C@H](O)[C@@H](O)C(O)O[C@@H]2CO)[C@H](O)[C@@H](O)[C@H]1O (some centres unmarked) [Lactose] | – | – | – | – | – | Minimum concentration resulting in complete inhibition of hemagglutination (A. viscosus OMZ 105 [2]; A. viscosus OMZ 105, no control of growth phase, desialylated human erythrocytes (A+), none = no inhibition up to 20 mg/ml): none; Concentration expressed in galactoside equivalents/ml (minimum concentration resulting in complete inhibition of hemagglutination) (A. viscosus OMZ 105 [2]; A. viscosus OMZ harvested in the exponential phase): > 10 mg/mL; Concentration expressed in dry weight/ml (minimum concentration resulting in complete inhibition of hemagglutination) (A. viscosus OMZ 105 [2]; A. viscosus OMZ harvested in the exponential phase, none = no inhibition up to 20 mg/ml): none; Minimum concentration resulting in complete inhibition of hemagglutination (A. naeslundii ATCC 12104): none |
